Key:
[1] = molecular target: T1, 5-hydroxytryptamine receptor 2C (Homo sapiens, UniProt P28335); assay: Displacement of [N-methyl-3H]LSD from human 5HT2C receptor expressed in HEK293 cells; type: cell-based
T1 sequence (P28335 whole entry): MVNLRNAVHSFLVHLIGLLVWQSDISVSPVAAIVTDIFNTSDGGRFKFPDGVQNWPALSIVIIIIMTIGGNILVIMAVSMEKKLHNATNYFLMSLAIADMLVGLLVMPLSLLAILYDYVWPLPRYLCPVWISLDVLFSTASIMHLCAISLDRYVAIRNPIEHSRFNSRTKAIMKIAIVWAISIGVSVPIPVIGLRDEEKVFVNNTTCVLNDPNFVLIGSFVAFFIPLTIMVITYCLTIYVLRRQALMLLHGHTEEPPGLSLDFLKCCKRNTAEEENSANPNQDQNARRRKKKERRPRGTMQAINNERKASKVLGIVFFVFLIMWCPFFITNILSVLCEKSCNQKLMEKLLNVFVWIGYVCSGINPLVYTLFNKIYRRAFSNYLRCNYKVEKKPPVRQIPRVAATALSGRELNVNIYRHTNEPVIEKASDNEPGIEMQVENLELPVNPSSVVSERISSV

[2] = molecular target: T2, 5-hydroxytryptamine receptor 4 (Homo sapiens, UniProt Q13639); assay: Binding affinity to human 5HT4 receptor expressed in HEK293 cells by saturation binding method; type: cell-based
T2 sequence (Q13639 whole entry): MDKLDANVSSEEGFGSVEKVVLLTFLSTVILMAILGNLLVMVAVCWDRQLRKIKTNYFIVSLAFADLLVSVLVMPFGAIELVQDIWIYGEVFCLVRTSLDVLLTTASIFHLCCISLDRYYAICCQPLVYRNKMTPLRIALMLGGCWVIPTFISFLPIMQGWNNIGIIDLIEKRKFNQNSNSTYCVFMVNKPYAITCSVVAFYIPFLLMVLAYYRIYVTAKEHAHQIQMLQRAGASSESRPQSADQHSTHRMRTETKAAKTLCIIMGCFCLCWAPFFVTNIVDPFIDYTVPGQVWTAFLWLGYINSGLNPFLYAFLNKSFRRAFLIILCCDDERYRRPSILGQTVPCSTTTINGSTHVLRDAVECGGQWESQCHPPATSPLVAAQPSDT

[3] = molecular target: T2, 5-hydroxytryptamine receptor 4; assay: Displacement of [N-methyl-3H]GR-113808 from human 5HT4 receptor expressed in HEK293 cells; type: cell-based
[4] = molecular target: 5-hydroxytryptamine receptor 2A (Homo sapiens, UniProt P28223); assay: biochemical; type: cell-based, HEK293
5-hydroxytryptamine receptor 2A, sequence (P28223 whole entry): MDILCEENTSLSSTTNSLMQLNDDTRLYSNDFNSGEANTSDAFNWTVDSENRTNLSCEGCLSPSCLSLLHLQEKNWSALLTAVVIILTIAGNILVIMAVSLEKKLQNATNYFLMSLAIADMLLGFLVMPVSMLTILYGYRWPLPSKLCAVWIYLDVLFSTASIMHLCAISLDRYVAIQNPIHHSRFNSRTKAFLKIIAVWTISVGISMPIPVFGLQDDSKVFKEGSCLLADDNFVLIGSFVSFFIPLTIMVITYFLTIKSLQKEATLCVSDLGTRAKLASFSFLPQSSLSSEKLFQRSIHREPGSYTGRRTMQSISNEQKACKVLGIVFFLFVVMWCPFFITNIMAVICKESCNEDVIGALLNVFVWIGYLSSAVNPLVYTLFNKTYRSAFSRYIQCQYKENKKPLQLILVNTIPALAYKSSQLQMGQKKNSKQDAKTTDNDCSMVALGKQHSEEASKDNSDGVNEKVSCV

Structure (SMILES) | Ki [1] | Kd [2] | Ki [3] | Ki [4]
NC(N)=NCCC[C@@H]1NC(=O)[C@H](Cc2c[nH]c3cc(Br)ccc23)NC1=O | 4.63 µM | – | – | –
[3H]C([3H])([3H])n1cc(C(=O)OCC2CCN(CCNS(C)(=O)=O)CC2)c2ccccc21 | – | 0.0158 µM | – | –
N=C(N)NCCC[C@@H]1NC(=O)/C(=C/c2c[nH]c3cc(Br)ccc23)NC1=O [BARETTIN] | 0.34 µM | – | 1.91 µM | 1.93 µM
CC[C@@H](CO)NC(=O)[C@@H]1C=C2c3cccc4c3c(cn4C)C[C@H]2N(C)C1 [METHYSERGIDE] | 0.0025 µM | – | – | –
CCCCCNC(=N)N/N=C/c1c[nH]c2ccc(OC)cc12 [TEGASEROD] | – | – | 0.031 µM | –
